Data from US11826448B2, “Zinc-arginine-chloride complex” (Colgate-Palmolive Company, priority 2018, dated 2023).

System: keratinocyte cell line (Hacat)
Assay: Wound healing efficacy: scratch assay on a keratinocyte monolayer culture
Format: cell-based
Experimental: Wound healing efficacy is determined by incubating a monolayer cell culture with ZBA.
Briefly, a keratinocyte cell line (Hacat) was cultured with full confluency in a 24 well plate. The cells are then scratched horizontally and vertically with a pipet tips to generate a wound. The cells are washed twice with 1 mL of PBS buffer, then full culture medium (supplemented with 10% FBS and 1% antibiotic) is added to the scratched cells. The ZBA solution obtained from Example 1 is diluted with full culture medium at a concentration of 5 ppm or 50 ppm. Culture wells are incubated at 37° C. at 5% CO2 for up to 72 hours with either the ZBA medium mixture or with medium alone. The area of the scratches is then compared by light microscopy at different time points up to 72 hrs.

[1] = ZBA solution diluted in full culture medium at 5 ppm or 50 ppm, 37° C., 5% CO2, up to 72 hours, light microscopy

Substance: [Zn(Arginine)2Cl]^+Cl^− [ZBA]
- cell migration into the scratch wound compared to medium alone [1]: greater cell migration
- cell proliferation compared to medium alone [1]: faster proliferation
- morphology of the cells adjacent to the wound (in the presence of ZBA, up to 72 hours): improved
